Columns and labels:
iNOS = iNOS expression measured as nitrite production induced by immune complexes in rat peritoneal macrophages; assay type: cell-based; settings: Peritoneal macrophage, 100 μg/ml IgG/ovalbumin, nitrite after 24 hours, mean ± SEM, read-out: IC50, production of nitrite (NO) induced by immune complexes
Method: Rat peritoneal cells were obtained and resuspended in DMEM culture medium in the absence of serum and supplemented with antibiotics. Macrophages were isolated by their ability to adhere to culture plates following incubation for 2 hours at 37° C. Non-adherent cells were removed and it was then checked that more than 95% of the adherent cells were macrophages, as assessed by their ability to engulf zymosan particles and nonspecific esterase staining. Culture plates were kept at 37° C. under a 5% CO2 atmosphere, and the peritoneal macrophages adhered to the plates were incubated with 100 μg/ml IgG/ovalbumin immune complexes in the presence or absence (Control) of triflusal or HTB (0.1-20 mM, both). Drugs were added 10 minutes before the addition of IgG/ovalbumin and the production of NO was determined as the nitrite present after 24 hours.
iNOS expression was indirectly measured as the production of NO. NO released from macrophage cultures was determined indirectly by the accumulation of nitrites. […] 50 μl naphthylenediamine (1 mM final concentration) were added and after 15 minutes of incubation the absorbance of the sample was measured at 548 nm and was compared with a NaNO2 standard. The production of NO was expressed as nmol NO2^−/mg protein.

VCAM-1 = assay: Expression of VCAM-1 mRNA induced by TNF-α in HUVEC (RT-PCR); assay type: cell-based, human; settings: 4 mM, TNF-α 100 U/ml, one hour
From the text: Primers used for the detection of VCAM-1 mRNA by RT-PCR were designed from the human gene sequence (EMBUGenBank AC: M30257), using the Wisconsin Package Version 9.1, Genetics Computer Group (GCG), Madison, Wis. Their sequences were 5′-TGTCACTGTMGCTGCMG-3′ and 5′-TTCCAGCCTGGTTAATTC-3′, corresponding to nucleotides 1090-1108 and 1589-1572 (L. Osbom et al., Cell 1989, 59(6), 1203-1211). Total RNA was extracted from cultured cells using the guanidium isothiocyanate method (P. Chomczynski and N. Sacchi, Anal Biochem. 1987, 162(1), 156-159). cDNA first strand was synthesized from total RNA by reverse transcription reaction. […] The relative amounts of each amplified cDNA were determined by measuring the density of the bands stained with ethidium bromide using the Gel Doc documentation system and the Molecular Analyst software from Bio-Rad Laboratories, Hercules, Calif. […]
Specifically, the effect of Triflusal (4 mM) and HTB (4 mM) on the regulation of the expression of VCAM-1 mRNA induced by TNF-α (100 U/ml) in HUVEC was studied. […] The PCR products were separated by electrophoresis in a 1.8% agarose gel and were later quantified. The molecular weight of the amplification products was determined from the electrophoretic migration of DNA size standards.

IC50 (iNOS) [µM] | Structure (SMILES) | inhibition of the expression of VCAM-1 mRNA induced by TNF-α (VCAM-1)
1840 ± 340 | O=C(O)c1ccc(C(F)(F)F)cc1O [HTB, 2-hydroxy-4-trifluoromethylbenzoic acid] | completely inhibit
1130 ± 120 | CC(=O)Oc1cc(C(F)(F)F)ccc1C(=O)O [triflusal, 2-Acetyloxy-4-trifluoromethylbenzoic acid, reference compound] | completely inhibit

From US6509377B1, “Use of a 2-hydroxy-4-trifluoromethylbenzoic acid derivatives as inhibitors of the activation of the nuclear transcription factor NF-κB” (J. Uriach & Cia, S.A., priority 1999, dated 2003)
